Measurements taken from patent US20070269420A1, “Compounds, Compositions and Methods for Treatment and Prophylaxis of Hepatitis C Viral Infections and Associated Diseases” (priority 2003, published 2007).

How the values were obtained:
559^R cells = experiment: Crystal violet qualitative cell proliferation assay, 5 day incubation, resistant clone; format: cell-based, human; settings: crystal violet staining
Method: (§1) The cellular toxicity of Compound A at different concentrations was assessed on different cell lines following crystal violet staining (qualitative cell proliferation assay) after 5 day incubation. Huh7 cells are human hepatoma cells. A genotype 1b replicon-containing cell line derived from Huh7 cells (Clone-A) was obtained from Apath, LLC. Clone-A cells were selected under Compound B drug pressure and a resistant clone was selected (559^R) which contained mutations in NS4B gene.

HCV NS4B = biological target: T1, HCV NS4B (Hepatitis C virus genotype 1b, UniProt Q9WMX2); experiment: NS4B binding assay (quenching of intrinsic protein fluorescence); settings: fluorescent binding assay
T1 construct: NS4B was cloned, expressed and purified to establish an assay; made in house
T1 sequence (Q9WMX2 1712-1972): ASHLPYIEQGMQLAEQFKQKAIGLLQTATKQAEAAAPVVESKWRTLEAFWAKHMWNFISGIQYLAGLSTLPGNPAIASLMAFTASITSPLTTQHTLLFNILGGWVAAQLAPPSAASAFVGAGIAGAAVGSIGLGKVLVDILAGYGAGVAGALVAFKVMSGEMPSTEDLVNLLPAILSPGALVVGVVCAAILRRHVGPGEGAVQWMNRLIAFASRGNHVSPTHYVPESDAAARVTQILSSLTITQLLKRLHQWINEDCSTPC
Description: NS4B was cloned, expressed and purified to establish an assay, which takes advantage of the intrinsic fluorescent properties of proteins and identifies compounds, which inhibit by a NS4B specific mechanism. This protein is necessary for viral replication. It is thought to act as an anchor securing the replication complex to cellular membranes, where replication is known to occur. Several other functions necessary for viral replication have also ascribed to NS4B.

Clone-A cells [1] = experiment: Crystal violet qualitative cell proliferation assay, 5 day incubation, Clone-A; format: cell-based, human; settings: crystal violet staining
Method: as §1

Huh-7 cells = format: cell-based; settings: human, 5 day
Method: as §1

[2] = system: HCV replicon (BB7 sequence) in Huh-7-Clone A cells; experiment: HCV replicon NS5A ELISA, inhibition of viral RNA replication; format: cell-based, hepatitis C virus; settings: measured by Elisa and quantitative RT-PCR, Clone-A cells
Method: Antiviral activity of representative compounds of the invention was evaluated in a human liver-derived cell line (Huh-7-Clone A) containing the HCV replicon (BB7 sequence) (See Lohmann et al. Science. 1999, 285:110-3; Blight K J et al., Science. 2000, 290:1972-4; Pietschmann, T. et al., J. Virol. 2001, 73:1252-1264; and Lohmann, V. et al., J. Virol. 2001, 75:1437-1449). The HCV replicon is a subgenomic viral RNA that expresses the HCV proteins required for its own replication. These proteins include non-structural proteins NS3, NS4A, NS4B, NS5A and NS5B. The replicon also contains a foreign gene encoding a drug-selectable marker (neomycin phosphotransferase) to allow for G418 (neomycin) selection of cells that contain the replicon.
An ELISA (enzyme-linked immunosorbant assay) was used to determine the effect of compounds within the scope of the invention on the amount of HCV NS5A protein produced after a 72-hour incubation of the replicon-containing cells in the presence of varying concentrations of compound. Huh7-Clone A cells were seeded in 96-well plates at a subconfluent density (9000 cells/well) in medium containing 2% FBS and incubated for 4 hours to allow attachment to occur. HCV-086 (solubilized with 100% dimethylsulfoxide [DMSO]) was added to wells using an 8-point, 3-fold serial dilution series, with a final DMSO concentration of 1% in a total volume of 200 μL. Plates were incubated for 72 hours at 37° C. and 5% CO2. Under these conditions, the cells are approximately 25% confluent at the time of seeding and 80-90% confluent on day 3. COSTAR® 96-well cell culture plates were used but other known cell culture plates may be used. After incubation, media is removed from wells and the cells are fixed to the assay plate using 0.05% glutaraldehyde (Fisher # 02957-4). The glutaraldehyde is then washed off using phosphate-buffered saline (PBS) following a 1 hour incubation and cells are blocked for non-specific antibody binding using for example SUPERBLOCK® reagent (blocking buffer) in PBS. The blocking agent is rinsed from the cells with PBS after 1 hour at 37° C., and HCV NS5A monoclonal antibody (Virostat # 1873) is added to each well containing compound. Primary antibody is incubated for 1 hour at 37° C. and rinsed 3 times with PBS containing 0.02% TWEEN-20™ before addition of Horseradish Peroxidase (HRP) conjugated secondary antibody. HRP is incubated for 1 hour at 37° C. and rinsed several times, first with PBS/TWEEN-20™ followed by PBS alone. To quantify peroxidase activity, 3,3′,5,5′-tetramethylbenzidine (TMB) substrate is added to the plate and after 30 minutes, the plates are read in an ELISA plate reader at an OD of 650 nm.
Compound dose response was measured in an 8-point dose curve diluted serially to determine the inhibitory concentration at 50% (EC50 value). […] Ranges of 50% effective concentrations (EC50s) for the representative compounds within the scope of this invention are listed in Tables 1-8. Preferred compounds have 50% effective concentrations at about 30 μM or less, more preferred compounds have 50% effective concentrations at about 5 μM or less, and most preferred compounds have 50% effective concentrations at about 0.5 μM or less.

Clone-A cells [3] = experiment: Genomic DNA fragmentation by agarose gel electrophoresis; format: cell-based, human; settings: Huh7, Clone-A and 559^R treated
Method: DNA fragmentation is a measure of apoptotic cell death. Huh7, Clone-A and 559^R were treated with Compound B and genomic DNA fragmentation determined by agarose gel electrophoresis.

Structure (SMILES) | cellular toxicity (559^R cells) [µM] | binding activity towards purified HCV NS4B (HCV NS4B) | cellular toxicity (Clone-A cells [1]) [µM] | cellular toxicity (Huh-7 cells) [µM] | activity against HCV-replicon [2] | genomic DNA fragmentation (apoptose) (Clone-A cells [3])
Cc1nn(-c2nnc3c4ccccc4n(C)c3n2)c(C)c1-c1ccccc1 [Compound A, 2-(3,5-dimethyl-4-phenyl-pyrazol-1-yl)-9-methyl-9H-1,3,4,9-tetraaza-fluorene] | ~30 | demonstrated binding activity | ~3 | ~30 | demonstrated activity | –
CCCCc1c(C)nn(-c2nnc3c4ccccc4n(CC)c3n2)c1C [Compound B, 2-(4-butyl-3,5-dimethyl-pyrazol-1-yl)-9-ethyl-9H-1,3,4,9-tetraaza-fluorene] | – | demonstrated binding activity | – | – | demonstrated activity | cause DNA fragmentation (apoptose) in Clone-A cells only
